The source of these data is patent US9551711B2, “Compositions and methods for detecting nitration of PKG-1α and methods of use thereof” (Augusta University Research Institute, Inc., priority 2013, dated 2017).

The target in experiment [1] is T1, PKG-1α (Homo sapiens, UniProt Q13976, Y425F).
T1 construct: an expression plasmid containing a full length WT-PKG-1α cDNA; expressed in transfected cells; host or cells: HEK-293T
T1 sequence (Q13976 2-671 Y425F): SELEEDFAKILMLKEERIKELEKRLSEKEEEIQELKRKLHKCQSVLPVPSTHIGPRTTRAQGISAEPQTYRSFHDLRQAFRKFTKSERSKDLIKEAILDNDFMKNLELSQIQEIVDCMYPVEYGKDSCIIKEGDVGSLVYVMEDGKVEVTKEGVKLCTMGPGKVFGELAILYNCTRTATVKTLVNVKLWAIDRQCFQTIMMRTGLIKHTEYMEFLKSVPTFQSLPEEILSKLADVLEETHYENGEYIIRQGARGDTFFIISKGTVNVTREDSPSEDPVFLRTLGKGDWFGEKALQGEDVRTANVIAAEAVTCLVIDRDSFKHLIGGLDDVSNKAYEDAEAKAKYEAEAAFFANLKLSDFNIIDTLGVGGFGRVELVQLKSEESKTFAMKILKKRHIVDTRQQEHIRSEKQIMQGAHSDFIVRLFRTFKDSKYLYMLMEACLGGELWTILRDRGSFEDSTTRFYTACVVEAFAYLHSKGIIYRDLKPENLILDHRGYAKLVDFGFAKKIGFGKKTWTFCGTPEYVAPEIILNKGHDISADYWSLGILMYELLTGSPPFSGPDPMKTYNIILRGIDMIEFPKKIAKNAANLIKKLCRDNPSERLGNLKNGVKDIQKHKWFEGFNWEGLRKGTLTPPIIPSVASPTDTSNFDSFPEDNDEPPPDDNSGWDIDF
As to the kind of experiment: PKG activity in transfected HEK-293T cells. It counts as cell-based. To be noted: HEK-293T expressing Y425F-PKG-1α; SIN-1 500 μM, 30 min. The method, then:
(§1) To determine the role of tyrosine 247 and tyrosine 425 in mediating the nitration dependent inhibition of PKG-1α kinase activity, Y247F- and Y425F-PKG-1α mutants were generated and expressed in HEK-293T cells. HEK-293T cells were transiently transfected with expression plasmids containing WT-, Y247F-, or Y425F-PKG-1α for 48 h. […] Protein extracts were immunoprecipitated using an antibody raised against PKG-1α and the level of nitrated PKG-1α determined by probing the membranes with an antiserum raised against 3-NT. The blots were then stripped and re-probed for PKG-1α to normalize for the efficiency of the immunoprecipitation.
(§2) Total PKG activity was determined using a non-radioactive immunoassay in cell lysates, according to the manufacturer's directions. […]
(§3) After incubation for 30 min at 30° C. to allow the phosphorylation of the bound substrate, an HRP conjugated anti-phosphothreonine specific antibody was added to convert a chromogenic substrate to a colorimetric substrate that was subsequently read spectrophotometrically at 450 nm. The change in absorbance reflected the relative activity of PKG in the sample. […] The kinetic constants were determined using nonlinear regression (curve fit) analysis (GraphPad Prism Software Inc.).

Experiment [2] concerns PKG-1α. As to the kind of experiment: PKG activity in transfected HEK-293T cells. It counts as cell-based, human. To be noted: HEK-293T; SIN-1 500 μM, 30 min. The method, then: as §1, §2, §3
The subject of experiment [3] is pulmonary artery smooth muscle cells (PASMC). As to the kind of experiment: PASMC phenotype markers MYH, Calponin-1, Vimentin (Western blot). It counts as cell-based, lamb. Conditions: WT-PKG-1α transfected PASMC; SIN-1 500 μM, 48 h. The protocol: (§4) To assess the effect of nitration on pulmonary arterial smooth muscle cell (PASMC) phenotype, PASMC were transiently transfected with expression plasmids containing WT-PKG-1α, Y247F-PKG-1α, or PDEST40 (as a control) for 20 h. Cells were then exposed or not to SIN-1 (500 μM, 48 h) and the effect on synthetic and contractile markers determined. The levels of myosin heavy chain (MYH, FIG. 3A), Calponin-1 (FIG. 3B), and Vimentin (FIG. 3C) were determined. The blots were then stripped and re-probed for β-actin to normalize for protein loading. PASMC were also subjected to immunohistochemistry using antibodies to SM22-α (5 μg/ml) and PCNA (1 μg/ml). Relevant secondary antibodies linked to Alexa Fluor 488 (green) were then applied. DAPI was also used to stain (blue) the cell nuclei.

In experiment [4] the test system is PKG-1α. The experiment in a line: PKG-1α protein levels in transfected PASMC (Western blot). It counts as cell-based, lamb. To be noted: SIN-1 500 μM, 48 h. The protocol: Therefore, the effect of these events were investigated in PASMC transiently transfected with expression plasmids containing WT- and Y247F-PKG-1α. The effect of nitration on pulmonary arterial smooth muscle cell (PASMC) growth and metabolism was determined. PASMC were transiently transfected with expression plasmids containing WT-PKG-1α, Y247F-PKG-1α or pDEST40 (as a control) for 20 h. Cells were then exposed or not to SIN-1 (500 μM, 48 h) and the effect on PKG protein levels (FIG. 2A) and activity determined (FIG. 2B).

The subject of experiment [5] is pulmonary artery smooth muscle cells (PASMC). As to the kind of experiment: PASMC immunocytochemistry for SM22-α and PCNA. Conditions: SIN-1 500 μM, 48 h. It is filed as cell-based, lamb. The protocol:
Semi-confluent PASMC grown on a coverslip in a 6-well plate were transfected with a mammalian expression plasmid containing either a wild-type (WT)- or Y247F-PKG-1α cDNA. After 20 h, the cells were serum starved (1% FBS) for 4 h then exposed or not to SIN-1 (500 μM) for 48 h. The cells were washed with PBS, methanol fixed (5 min), and permeabilized in 0.1% PBS-Tween (20 min). The cells were then washed 3× with PBS and blocked for non-specific protein-protein interactions with 1% BSA in PBS (1 h). The antibodies, smooth muscle (SM) 22-α (5 μg/ml) or proliferating cell nuclear antigen (PCNA) (1 μg/ml) diluted in 1% BSA in PBS, were added and incubated overnight at 4° C. The cells were again washed 3× with PBS and incubated in secondary antibody (green): Alexa Fluor 488 goat anti-mouse IgG (H+L) (1/1000 dilution) for PCNA or Alexa Fluor 488 donkey anti-goat IgG (H+L) (1/1000 dilution) for SM22-α for 1 h in the dark. DAPI was used to stain the cell nuclei (blue) at a concentration of 0.5 μg/ml for 3 min. The cells were rinsed 3× with PBS, and the coverslips were mounted on the slides with ProLong Gold Antifade and analyzed with the use of a Nikon Eclipse TE 300 inverted fluorescent microscope with a 60× oil objective and a Hamamatsu digital camera.
as §4

Consider “3-morpholinosydnonimine N-ethylcarbamide [SIN-1]”, for which the “cGMP dependent PKG activity” value on PKG-1α [1] is listed as “attenuated”. Besides, the “cGMP-independent PKG activity” value in the experiment on PKG-1α [2] is given as “did not alter”. Moreover, in experiment [3], the “expression of contractile marker Calponin-1” value was “decreased”, the “expression of contractile marker MYH” value is given as “decreased” and the “expression of proliferative marker Vimentin” value was “increased”. The PKG-1α protein levels entry in the experiment on PKG-1α [4] was “no effect”. In experiment [5] (WT-PKG-1α expressing PASMC), the PCNA staining result is on record as “increased” and the SM-22α expression result is listed as “attenuated”. The “filamentous SM22-α expression and nuclear staining of PCNA” value in experiment [5] (Y247F-PKG-1α expressing PASMC) is “unaffected”.
